Reference: US12016852B2, “Pyrrolidine glycosidase inhibitors” (Asceneuron SA, priority 2018, dated 2024)

biological target: T1, Human O-GlcNAcase (His-Tagged hOGA) (Homo sapiens, UniProt O60502); experiment: Human O-GlcNAcase enzyme inhibition assay; type: biochemical; details: 20 nM His-Tagged hOGA, 10 μM FL-GlcNAc, McIlvaine's Buffer pH 6.5, 60 min at room temperature, fluorescence; read-out: OGA IC50
T1 sequence (O60502 1-916): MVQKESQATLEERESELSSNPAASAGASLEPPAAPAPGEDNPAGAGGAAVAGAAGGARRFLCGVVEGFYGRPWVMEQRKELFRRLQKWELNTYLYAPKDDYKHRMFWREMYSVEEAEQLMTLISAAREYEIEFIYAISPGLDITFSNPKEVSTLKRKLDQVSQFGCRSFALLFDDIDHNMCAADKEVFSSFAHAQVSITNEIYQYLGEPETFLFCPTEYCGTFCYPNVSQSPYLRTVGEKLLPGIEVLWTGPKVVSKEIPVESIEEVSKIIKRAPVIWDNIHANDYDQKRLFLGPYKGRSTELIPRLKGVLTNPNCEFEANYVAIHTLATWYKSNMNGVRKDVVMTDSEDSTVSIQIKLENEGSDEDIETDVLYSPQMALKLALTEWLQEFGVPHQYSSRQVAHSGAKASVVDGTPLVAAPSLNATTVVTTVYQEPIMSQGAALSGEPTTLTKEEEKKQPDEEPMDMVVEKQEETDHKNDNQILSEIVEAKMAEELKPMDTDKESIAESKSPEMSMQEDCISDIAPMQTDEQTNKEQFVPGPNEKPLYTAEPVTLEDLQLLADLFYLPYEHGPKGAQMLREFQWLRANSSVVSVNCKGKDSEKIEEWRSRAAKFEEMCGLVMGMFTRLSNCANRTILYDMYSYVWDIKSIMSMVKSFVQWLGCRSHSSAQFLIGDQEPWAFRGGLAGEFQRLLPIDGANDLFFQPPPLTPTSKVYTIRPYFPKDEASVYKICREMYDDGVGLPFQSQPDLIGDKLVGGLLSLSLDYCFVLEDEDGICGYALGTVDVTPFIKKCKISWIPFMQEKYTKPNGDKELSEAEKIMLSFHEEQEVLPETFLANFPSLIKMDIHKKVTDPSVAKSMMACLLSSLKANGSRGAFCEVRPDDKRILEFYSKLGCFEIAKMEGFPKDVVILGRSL
Procedure: Example B01: Human O-GlcNAcase Enzyme Inhibition Assay
5 μl of the appropriate concentration of a solution of inhibitor in Mcllvaine's Buffer (pH 6.5) in 2% DMSO (for a dose response curve calculation) is added into each well of a 384-well plate (Greiner, 781900). Then, 20 nM of His-Tagged hOGA and 10 μM of FL-GlcNAc (Fluorescein mono-beta-D-(2-deoxy-2-N-acetyl) glucopyranoside; Marker Gene Technologies Inc, M1485) were added to the 384-well plate for a final volume of 20 μl. After incubation for 60 min at room temperature, the reaction was terminated by the addition of 10 μL of stop buffer (200 mM glycine, pH 10.75). The level of fluorescence (λexc 485 nm; (λemm 520 nm) was read on a PHERAstar machine. The amount of fluorescence measured was plotted against the concentration of inhibitor to produce a sigmoidal dose response curve to calculate an IC50. All individual data was corrected by subtraction of the background (Thiamet 3 uM=100% inhibition) whilst 0.5% DMSO was considered as the control value (no inhibition).

Row | SMILES | IC50
1 | c1cc(-c2ccc(CN3CCCC3c3ccc4c(c3)OCCO4)cc2)ccn1 (racemic) [Example 46, 4-(4-((2-(2,3-dihydrobenzo[b] [1,4]dioxin-6-yl)pyrrolidin-1-yl)methyl)phenyl)pyridine] | 0.2 to 1 µM
2 | O=C1COCCN1c1ccc(CN2CCCC2c2ccc3c(c2)OCCO3)cc1 (racemic) [Example 61, 4-(4-((2-(2,3-dihydrobenzo[b] [1,4]dioxin-6-yl)pyrrolidin-1-yl)methyl)phenyl) morpholin-3-one] | 0.2 to 1 µM
3 | COc1cccc(-c2ccc(CN3CCCC3c3ccc4c(c3)OCCO4)cc2)n1 (racemic) [Example 151] | 0.2 to 1 µM
4 | c1ccc(-c2ccc(CN3CCCC3c3ccc4c(c3)OCCO4)cc2)cc1 (racemic) [Example 9, 1-([1,1′-biphenyl]-4-ylmethyl)-2-(2,3-dihydrobenzo[b] [1,4]dioxin-6-yl)pyrrolidine] | 0.2 to 1 µM
5 | Cn1cc(-c2cccc(CN3CCCC3c3ccc4c(c3)OCCO4)c2)cn1 (racemic) [Example 21, 4-(3-((2-(2,3-dihydrobenzo[b] [1,4]dioxin-6-yl)pyrrolidin-1-yl)methyl)phenyl)-1-methyl-1H-Pyrazole] | 0.2 to 1 µM
6 | CS(=O)(=O)CCOc1ccc(CN2CCCC2c2ccc3c(c2)OCCO3)cc1 (racemic) [Example 65, 2-(2,3-dihydrobenzo[b] [1,4]dioxin-6-yl)-1-(4-(2-(methylsulfonyl)ethoxy)benzyl)pyrrolidine] | 1 to 10 µM
7 | Cc1cc(CN2CCCC2c2ccc3c(c2)OCCO3)ccc1-c1cccnc1C (racemic) [Example 71, 3-(4-((2-(2,3-dihydrobenzo[b] [1,4]dioxin-6-yl)pyrrolidin-1-yl)methyl)-2-methylphenyl)-2-methylpyridine] | 0.2 to 1 µM
8 | c1cncc(-c2ccc(CN3CCCC3c3ccc4c(c3)OCCO4)cc2)c1 (racemic) [Example 30, 3-(4-((2-(2,3-dihydrobenzo[b] [1,4]dioxin-6-yl)pyrrolidin-1-yl)methyl)phenyl) pyridine] | 0.05 to 0.2 µM
9 | CN1CCN(c2ccc(CN3CCCC3c3ccc4c(c3)OCCO4)cc2)CC1 (racemic) [Example 146] | 1 to 10 µM
10 | c1cnc2ccc(CN3CCCC3c3ccc4c(c3)OCCO4)cc2c1 (racemic) [Example 19, 6-((2-(2,3-dihydrobenzo[b] [1,4]dioxin-6-yl)pyrrolidin-1-yl)methyl)quinoline] | 0.2 to 1 µM
11 | Cc1cnc(-c2ccc(CN3CCCC3c3ccc4c(c3)OCCO4)cc2)s1 (racemic) [Example 59, 2-(4-((2-(2,3-dihydrobenzo[b] [1,4]dioxin-6-yl)pyrrolidin-1-yl)methyl)phenyl)-5-methylthiazole] | 0.2 to 1 µM
12 | Cc1cnccc1-c1ccc(CN2CCCC2c2ccc3c(c2)OCCO3)cc1C (racemic) [Example 70, 4-(4-((2-(2,3-dihydrobenzo[b] [1,4]dioxin-6-yl)pyrrolidin-1-yl)methyl)-2-methylphenyl)-3-methylpyridine] | 1 to 10 µM
13 | Fc1ccc(-c2ccc(CN3CCCC3c3ccc4c(c3)OCCO4)cc2)nc1 (racemic) [Example 160] | 0.05 to 0.2 µM
14 | Cn1cc(-c2ccc(CN3CCCC3c3ccc4c(c3)OCCO4)cc2)cn1 (racemic) [Example 4, 4-(4-((2-(2,3-dihydrobenzo[b] [1,4]dioxin-6-yl)pyrrolidin-1-yl)methyl)phenyl)-1-methyl-1H-pyrazole] | 0.05 to 0.2 µM
15 | c1ccc(-c2ccc(CN3CCCC3c3ccc4c(c3)OCCO4)cc2)nc1 (single isomer, unassigned) [Example 40, (S)-2-(4-((2-(2,3-dihydrobenzo[b] [1,4]dioxin-6-yl)pyrrolidin-1-yl)methyl)phenyl)pyridine or (R)-2-(4-((2-(2,3-dihydrobenzo[b] [1,4]dioxin-6-yl)pyrrolidin-1-yl)methyl)phenyl)pyridine] | 0.05 to 0.2 µM
16 | c1ccc(-c2ccc(CN3CCCC3c3ccc4c(c3)OCCO4)cc2)nc1 (racemic) [Example 29, 2-(4-((2-(2,3-dihydrobenzo[b] [1,4]dioxin-6-yl)pyrrolidin-1-yl)methyl)phenyl)pyridine] | 0.2 to 1 µM
17 | O=c1[nH]nc(-c2ccc(CN3CCCC3c3ccc4c(c3)OCCO4)cc2)o1 (racemic) [Example 76, 5-(4-((2-(2,3-dihydrobenzo[b] [1,4]dioxin-6-yl)pyrrolidin-1-yl)methyl)phenyl)-1,3,4-oxadiazol-2(3H)-one] | 0.2 to 1 µM
18 | COc1ncc(-c2ccc(CN3CCCC3c3ccc4c(c3)OCCO4)cc2)cn1 (racemic) [Example 159] | < 0.05 µM
19 | Cn1cc(-c2ccc(CN3CCCC3c3ccc4c(c3)OCCO4)cn2)cn1 (racemic) [Example 5, 5-((2-(2,3-dihydrobenzo[b] [1,4]dioxin-6-yl)pyrrolidin-1-yl)methyl)-2-(1-methyl-1H-pyrazol-4-yl)pyridine] | 0.05 to 0.2 µM
20 | O=C1CCCCN1c1ccc(CN2CCCC2c2ccc3c(c2)OCCO3)cc1 (racemic) [Example 62, 1-(4-((2-(2,3-dihydrobenzo[b] [1,4]dioxin-6-yl)pyrrolidin-1-yl)methyl)phenyl)piperidin-2-one] | 0.2 to 1 µM

Other lines, results leading:

Row | IC50 | SMILES
21 | 0.2 to 1 µM | O=S1(=O)CCN(c2ccc(CN3CCCC3c3ccc4c(c3)OCCO4)cc2)CC1 (racemic) [Example 66, 4-(4-((2-(2,3-dihydrobenzo[b] [1,4]dioxin-6-yl)pyrrolidin-1-yl)methyl)phenyl)thiomorpholine 1,1-dioxide]
22 | 0.05 to 0.2 µM | c1cnc(-c2ccc(CN3CCCC3c3ccc4c(c3)OCCO4)cc2)nc1 (single isomer, unassigned) [Example 75, (S)-2-(4-((2-(2,3-dihydrobenzo[b] [1,4]dioxin-6-yl)pyrrolidin-1-yl)methyl)phenyl)pyrimidine or (R)-2-(4-((2-(2,3-dihydrobenzo[b] [1,4]dioxin-6-yl)pyrrolidin-1-yl)methyl)phenyl)pyrimidine]
23 | 0.2 to 1 µM | c1cc(N2CCOCC2)ccc1CN1CCCC1c1ccc2c(c1)OCCO2 (racemic) [Example 23, 4-(4-((2-(2,3-dihydrobenzo[b] [1,4]dioxin-6-yl)pyrrolidin-1-yl)methyl)phenyl)morpholine]
24 | 0.05 to 0.2 µM | Brc1cnn(-c2ccc(CN3CCCC3c3ccc4c(c3)OCCO4)cc2)c1 (racemic) [Example 51, 4-bromo-1-(4-((2-(2,3-dihydrobenzo[b] [1,4]dioxin-6-yl)pyrrolidin-1-yl)methyl)phenyl)-1H-pyrazole]
25 | 0.05 to 0.2 µM | c1ncn(-c2ccc(CN3CCCC3c3ccc4c(c3)OCCO4)cc2)n1 (single isomer, unassigned) [Example 48, (S)-1-(4-((2-(2,3-dihydrobenzo[b] [1,4]dioxin-6-yl)pyrrolidin-1-yl)methyl) Phenyl)-1H-1,2,4-triazole or (R)-1-(4-((2-(2,3-dihydrobenzo[b] [1,4]dioxin-6-yl)pyrrolidin-1-yl)methyl)phenyl)-1 H-1,2,4-triazole]
26 | 1 to 10 µM | Cn1cc(-c2ccc(CN3CCCC3c3ccc4c(c3)OCCO4)nc2)cn1 (single isomer, unassigned) [Example 18, (S)-2-((2-(2,3-dihydrobenzo[b] [1,4]dioxin-6-yl)pyrrolidin-1-yl)methyl)-5-(1-methyl-1H-pyrazol-4-yl)pyridine or (R)-2-((2-(2,3-dihydrobenzo[b] [1,4]dioxin-6-yl)pyrrolidin-1-yl)methyl)-5-(1-methyl-1H-pyrazol-4-yl)pyridine]
27 | 0.2 to 1 µM | c1cnc(N2CCC(CN3CCCC3c3ccc4c(c3)OCCO4)CC2)nc1 (racemic) [Example 35, 2-(4-((2-(2,3-dihydrobenzo[b] [1,4]dioxin-6-yl)pyrrolidin-1-yl)methyl)piperidin-1-yl)pyrimidine]
28 | 0.2 to 1 µM | Cc1csc(-c2ccc(CN3CCCC3c3ccc4c(c3)OCCO4)cc2)n1 (racemic) [Example 68, 2-(4-((2-(2,3-dihydrobenzo[b] [1,4]dioxin-6-yl)pyrrolidin-1-yl)methyl)phenyl)-4-methylthiazole]
29 | 0.05 to 0.2 µM | c1cnn(-c2ccc(CN3CCCC3c3ccc4c(c3)OCCO4)cc2)c1 (racemic) [Example 16, 1-(4-((2-(2,3-dihydrobenzo[b] [1,4]dioxin-6-yl)pyrrolidin-1-yl)methyl)phenyl)-1H-pyrazole]
